Experimental findings from patent US12275688B2, “Crystalline solids of MEK inhibitor N-((R)-2,3-dihydroxypropoxy)-3,4-difluoro-2-(2-fluoro-4-iodo-phenylamino)-benzamide and uses thereof” (SpringWorks Therapeutics, Inc., priority 2021, dated 2025) are described below.

Assay type in all cases: physicochemical
The nature of data set [1]: Water activity studies of hydrates at 23° C. To be noted: water activities (aw) 0.6-0.99. As to the method:
Water activity studies of the stable hydrated Forms VI and XIX were conducted to determine their relative thermodynamic stabilities. The studies were conducted at 23° C. in various water/ethanol mixtures to provide water activities (aw) from 0.6-0.99. The water activity range includes the approximate water activity of the current final isolation step of the mirdametinib manufacturing process. Saturated suspensions were prepared by stirring an excess of mirdametinib in the test solvents for 16 hours. The suspensions were filtered and transferred onto mixtures containing equivalent amounts of Form VI and Form XIX. […] The hydrates may be kinetically favored at higher water activities.

The nature of data set [2]: Solid-state stability of crystal forms at ambient conditions. The conditions noted are these: ambient conditions. The source says: The following sections describe and summarize the physical properties of each of the crystal forms observed for mirdametinib.
Data set [3] can be described thus: Drying of certain forms via vacuum oven at 45° C. To be noted: overnight in vacuum oven at 45° C.; PXRD at about 70% ambient lab humidity. As to the method:
Drying studies for certain forms were conducted overnight in a vacuum oven at 45° C. After drying, samples were equilibrated to RT for 10 min. and analyzed by PXRD at about 70% ambient lab humidity.

Data set [4] can be described thus: Toluene-spiked slurry studies of Form V in water:ethanol. The conditions noted are these: water:ethanol (1.1/0.5 v/v) overnight at RT. The source says:
The process-relevant toluene solvate (Form V) was stirred in water:ethanol (1.1/0.5 v/v) overnight at RT with varying amounts of added toluene. The suspensions were filtered, and solids analyzed by PXRD.

The nature of data set [5]: Desolvation/dehydration by heating in TGA pan to 100° C. To be noted: 15° C./min from 25 to 100° C., 5 min. hold at 100° C., air-cooled to RT. On the procedure: Desolvation/dehydration studies of certain forms were conducted in a TGA pan with loose lid at a heating rate of 15° C./min from 25 to 100° C. with a 5 min. hold at 100° C. Samples were air-cooled to RT on the TGA and analyzed by PXRD if crystalline. […] PXRD indicated Form I.

For `O=C(NOC[C@H](O)CO)c1ccc(F)c(F)c1Nc1ccc(I)cc1F` [Form IV, N—((R)-2,3-dihydroxypropoxy)-3,4-difluoro-2-(2-fluoro-4-iodo-phenylamino)-benzamide], the “Relative stability versus hydrate Forms VI and XIX” value in data set [1] is “more stable at water activities (aw) 0.6-0.99 than hydrate Forms VI and XIX”.

Take `O=C(NOC[C@H](O)CO)c1ccc(F)c(F)c1Nc1ccc(I)cc1F` [Form V, N—((R)-2,3-dihydroxypropoxy)-3,4-difluoro-2-(2-fluoro-4-iodo-phenylamino)-benzamide]: in data set [2], the “Stable at ambient conditions for” value is given as at least 10 days. Also, the “Form after vacuum oven drying (PXRD)” value in data set [3] was “Remained unchanged”. Also, the “Form after slurry (PXRD)” value in data set [4] (0.5% added toluene (relative to mirdametinib weight)) was “converted to mostly Form IV with some lesser amount of Form V”; in data set [4] (1% and 2% added toluene), “higher relative amounts of Form V were observed”; in data set [4] (no added toluene), “converted to phase-pure Form IV”. Also, in data set [5], the “Result of desolvation/dehydration by heating” value was “melted and solidified in molten, amorphous state, possible decomposition”.

In the case of `O=C(NOC[C@H](O)CO)c1ccc(F)c(F)c1Nc1ccc(I)cc1F` [Form VI, N—((R)-2,3-dihydroxypropoxy)-3,4-difluoro-2-(2-fluoro-4-iodo-phenylamino)-benzamide], the “Stable in solid-state at ambient conditions for” value in data set [2] (solid-state) is listed as at least 2 weeks. Also, the “Form after vacuum oven drying (PXRD)” value in data set [3] is recorded as “Partially converted to Form A”. Further, in data set [5], the “Result of desolvation/dehydration by heating” value is “melted and solidified in molten, amorphous state, possible decomposition”.
